Data from ChEMBL document CHEMBL1201862, “PubChem BioAssay data set” (2004).
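Dose response: 5 concentrations. Exposure: 48 h. Format: 96-well plates. Endpoint: linear interpolation; highest concentration if not reached. Here, GI50 denotes the concentration required for 50% inhibition of growth.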 Active and inactive are the calls of the source. Rule as the data show it: active = GI50 up to about 1.1 µM and inactive = higher.

Legend:
Assay in all cases: NCI-60 cell line screen, 48 h
A549 = tested on: A549
ACHN = tested on: ACHN
DU-145 = tested on: DU-145
EKVX = tested on: EKVX
HCC 2998 = tested on: HCC 2998
HOP-92 = tested on: HOP-92
Hs-578T = tested on: Hs-578T
KM12 = tested on: KM12
MDA-MB-231 = tested on: MDA-MB-231
MDA-N = tested on: MDA-N
NCI-H23 = tested on: NCI-H23
NCI-H460 = tested on: NCI-H460
OVCAR-3 = tested on: OVCAR-3
OVCAR-4 = tested on: OVCAR-4
RPMI-8226 = tested on: RPMI-8226
SF-539 = tested on: SF-539
SK-MEL-5 = tested on: SK-MEL-5
SN12C = tested on: SN12C
TK-10 = tested on: TK-10
U-251 = tested on: U-251

Compound | GI50 (A549) | GI50 (ACHN) | GI50 (DU-145) | GI50 (EKVX) | GI50 (HCC 2998) | GI50 (HOP-92) | GI50 (Hs-578T) | GI50 (KM12) | GI50 (MDA-MB-231) | GI50 (MDA-N) | GI50 (NCI-H23) | GI50 (NCI-H460) | GI50 (OVCAR-3) | GI50 (OVCAR-4) | GI50 (RPMI-8226) | GI50 (SF-539) | GI50 (SK-MEL-5) | GI50 (SN12C) | GI50 (TK-10) | GI50 (U-251)
COc1cc2oc3c(c(=O)c2c(O)c1/C=C/C(C)C)C(C=C(C)C)Oc1cc(O)ccc1-3 (stereo not given) | 15 µM (inactive) | 15.4 µM (inactive) | 16.3 µM (inactive) | 16.1 µM (inactive) | 12.1 µM (inactive) | 15.6 µM (inactive) | 19 µM (inactive) | 17.2 µM (inactive) | 18 µM (inactive) | 16.9 µM (inactive) | 15.7 µM (inactive) | 14.5 µM (inactive) | 15 µM (inactive) | 16.6 µM (inactive) | 14.7 µM (inactive) | 17.5 µM (inactive) | 18.5 µM (inactive) | 16.1 µM (inactive) | 16.4 µM (inactive) | 16.7 µM (inactive)
S=C1Cc2c(-c3ccc(Cl)cc3)cc(-c3ccccc3)nc2-c2ccccc2N1 | 8.73 µM (inactive) | 7.82 µM (inactive) | 22 µM (inactive) | 15.6 µM (inactive) | 23.9 µM (inactive) | 8.04 µM (inactive) | 3.56 µM (inactive) | 4.85 µM (inactive) | 7.8 µM (inactive) | 14 µM (inactive) | 11.6 µM (inactive) | 13 µM (inactive) | 13 µM (inactive) | 3.08 µM (inactive) | 37.3 µM (inactive) | 4.01 µM (inactive) | 16 µM (inactive) | 13.5 µM (inactive) | 12.3 µM (inactive) | 4.03 µM (inactive)
C=C1CC(Cn2cc(Br)c(=O)[nH]c2=O)(c2ccc(-c3ccccc3)cc2)OC1=O (stereo not given) | 5.31 µM (inactive) | 1.83 µM (inactive) | 1.66 µM (inactive) | 2.16 µM (inactive) | 1.66 µM (inactive) | 0.0308 µM (active) | 2.74 µM (inactive) | 1.52 µM (inactive) | 3.08 µM (inactive) | 0.83 µM (active) | 0.993 µM (active) | 6.25 µM (inactive) | 1.63 µM (inactive) | 2.13 µM (inactive) | 0.128 µM (active) | 1.37 µM (inactive) | 1.27 µM (inactive) | 1.9 µM (inactive) | 0.432 µM (active) | 5.92 µM (inactive)
CC(=O)C(=[N+]=[N-])C(=O)NCC#N | > 10 µM (inactive) | > 10 µM (inactive) | > 10 µM (inactive) | > 10 µM (inactive) | > 10 µM (inactive) | > 10 µM (inactive) | > 10 µM (inactive) | 6.93 µM (inactive) | > 10 µM (inactive) | > 10 µM (inactive) | > 10 µM (inactive) | > 10 µM (inactive) | > 10 µM (inactive) | > 10 µM (inactive) | > 10 µM (inactive) | > 10 µM (inactive) | > 10 µM (inactive) | > 10 µM (inactive) | > 10 µM (inactive) | > 10 µM (inactive)
CC(C)c1[nH]nc(C(N)=O)c1/N=N/N(C)C | 23.7 µM (inactive) | 65 µM (inactive) | 97.9 µM (inactive) | 47.9 µM (inactive) | > 100 µM (inactive) | 47.4 µM (inactive) | 54.7 µM (inactive) | 61.1 µM (inactive) | > 100 µM (inactive) | > 100 µM (inactive) | > 100 µM (inactive) | 42.5 µM (inactive) | > 100 µM (inactive) | > 100 µM (inactive) | 60.7 µM (inactive) | 69.2 µM (inactive) | 88.1 µM (inactive) | 75.3 µM (inactive) | 64.7 µM (inactive) | 49.7 µM (inactive)
ClCc1nn(-c2ccccc2)c(CCl)c1CCl | 7.66 µM (inactive) | 2.96 µM (inactive) | 4.68 µM (inactive) | 3.03 µM (inactive) | 12.1 µM (inactive) | 3.33 µM (inactive) | 14.5 µM (inactive) | 3.37 µM (inactive) | 4.34 µM (inactive) | 2.88 µM (inactive) | 4.46 µM (inactive) | 2.66 µM (inactive) | 3.47 µM (inactive) | 2.72 µM (inactive) | 2.52 µM (inactive) | 2.34 µM (inactive) | 2.68 µM (inactive) | 3.11 µM (inactive) | 8.39 µM (inactive) | 2.35 µM (inactive)
